Measured values published in ChEMBL document CHEMBL1201862, “PubChem BioAssay data set” (2004).
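Cultured in 96-well plates, cells were exposed to test compound for 48 hours across five concentrations. Here, GI50 denotes the concentration required for 50% inhibition of growth.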 Active and inactive are the calls of the source. Cut-off read from the data, not from the text of the source: active = GI50 up to about 1.1 µM and inactive = higher.

Key:
Assay in all cases: NCI-60 cell line screen, 48 h
KM12 = system: KM12
NCI/ADR-RES = system: NCI/ADR-RES
HCC 2998 = system: HCC 2998
SF-295 = system: SF-295
NCI-H522 = system: NCI-H522
LOX IMVI = system: LOX IMVI
T47D = system: T47D
HOP-92 = system: HOP-92
EKVX = system: EKVX
SK-MEL-28 = system: SK-MEL-28
NCI-H23 = system: NCI-H23
K562 = system: K562
OVCAR-8 = system: OVCAR-8
SK-MEL-5 = system: SK-MEL-5
SK-MEL-2 = system: SK-MEL-2
RPMI-8226 = system: RPMI-8226
786-0 = system: 786-0
HCT-116 = system: HCT-116
CAKI-1 = system: CAKI-1
SF-268 = system: SF-268
SF-539 = system: SF-539
COLO 205 = system: COLO 205
BT-549 = system: BT-549
MDA-MB-231 = system: MDA-MB-231
SK-OV-3 = system: SK-OV-3
NCI-H460 = system: NCI-H460
U-251 = system: U-251
SW-620 = system: SW-620
HOP-62 = system: HOP-62
RXF 393 = system: RXF 393
MCF7 = system: MCF7
A549 = system: A549
UACC-257 = system: UACC-257
UO-31 = system: UO-31
NCI-H226 = system: NCI-H226
OVCAR-3 = system: OVCAR-3
OVCAR-4 = system: OVCAR-4
A498 = system: A498
ACHN = system: ACHN
IGROV-1 = system: IGROV-1
DU-145 = system: DU-145
PC-3 = system: PC-3
Malme-3M = system: Malme-3M
SNB-75 = system: SNB-75
MOLT-4 = system: MOLT-4
MDA-N = system: MDA-N
MDA-MB-435 = system: MDA-MB-435
HCT-15 = system: HCT-15
Hs-578T = system: Hs-578T
M14 = system: M14
UACC-62 = system: UACC-62
HT-29 = system: HT-29
OVCAR-5 = system: OVCAR-5
SNB-19 = system: SNB-19
TK-10 = system: TK-10
SN12C = system: SN12C

## N#Cc1c(C#N)c(SSc2c(C#N)c(C#N)c(N)n2-c2ccccc2)n(-c2ccccc2)c1N
KM12
  GI50: 25.4 µM (inactive)
NCI/ADR-RES
  GI50: 33.8 µM (inactive)
HCC 2998
  GI50: 20.9 µM (inactive)
SF-295
  GI50: 24.9 µM (inactive)
NCI-H522
  GI50: 3.47 µM (inactive)
LOX IMVI
  GI50: 86.7 µM (inactive)
T47D
  GI50: 2.44 µM (inactive)
HOP-92
  GI50: 2.08 µM (inactive)
EKVX
  GI50: 20.9 µM (inactive)
SK-MEL-28
  GI50: 20.3 µM (inactive)
NCI-H23
  GI50: 23.6 µM (inactive)
K562
  GI50: 4.38 µM (inactive)
OVCAR-8
  GI50: > 100 µM (inactive)
SK-MEL-5
  GI50: 6.22 µM (inactive)
SK-MEL-2
  GI50: 21.1 µM (inactive)
RPMI-8226
  GI50: 2.78 µM (inactive)
786-0
  GI50: 9.44 µM (inactive)
HCT-116
  GI50: 3.33 µM (inactive)
CAKI-1
  GI50: 2.14 µM (inactive)
SF-268
  GI50: 27.7 µM (inactive)
SF-539
  GI50: 92.9 µM (inactive)
COLO 205
  GI50: 1.99 µM (inactive)
BT-549
  GI50: 5.57 µM (inactive)
MDA-MB-231
  GI50: 40.9 µM (inactive)
SK-OV-3
  GI50: 19.3 µM (inactive)
NCI-H460
  GI50: 30.6 µM (inactive)
U-251
  GI50: 21.6 µM (inactive)
SW-620
  GI50: 1.77 µM (inactive)
HOP-62
  GI50: 28.4 µM (inactive)
RXF 393
  GI50: 18.3 µM (inactive)
MCF7
  GI50: 2.39 µM (inactive)
A549
  GI50: 36 µM (inactive)
UACC-257
  GI50: 24.8 µM (inactive)
UO-31
  GI50: 1.91 µM (inactive)
NCI-H226
  GI50: 22.3 µM (inactive)
OVCAR-3
  GI50: 16.7 µM (inactive)
OVCAR-4
  GI50: 2.25 µM (inactive)
A498
  GI50: 20.7 µM (inactive)
ACHN
  GI50: 5.08 µM (inactive)
IGROV-1
  GI50: 28.4 µM (inactive)
DU-145
  GI50: 18.6 µM (inactive)
PC-3
  GI50: 20.9 µM (inactive)
Malme-3M
  GI50: 2 µM (inactive)
SNB-75
  GI50: 31.8 µM (inactive)
MOLT-4
  GI50: 5.89 µM (inactive)
MDA-N
  GI50: 28.8 µM (inactive)
MDA-MB-435
  GI50: 14.9 µM (inactive)
HCT-15
  GI50: 2.77 µM
Hs-578T
  GI50: 24.7 µM (inactive)
M14
  GI50: 7.69 µM (inactive)
UACC-62
  GI50: 16.9 µM (inactive)
HT-29
  GI50: 40.5 µM (inactive)
OVCAR-5
  GI50: 36.4 µM (inactive)
SNB-19
  GI50: 22.4 µM (inactive)
TK-10
  GI50: 1.82 µM (inactive)
SN12C
  GI50: 19.7 µM (inactive)

## O=C1CSC2(CCN(CCCN3c4ccccc4Sc4ccc(Cl)cc43)CC2)N1
KM12
  GI50: 6.65 µM (inactive)
NCI/ADR-RES
  GI50: 4.9 µM (inactive)
HCC 2998
  GI50: 3.99 µM (inactive)
SF-295
  GI50: 10.3 µM (inactive)
NCI-H522
  GI50: 10.1 µM (inactive)
LOX IMVI
  GI50: 3.88 µM (inactive)
T47D
  GI50: 3.57 µM (inactive)
HOP-92
  GI50: 5.55 µM (inactive)
EKVX
  GI50: 9.31 µM (inactive)
SK-MEL-28
  GI50: 15 µM (inactive)
NCI-H23
  GI50: 9.46 µM (inactive)
K562
  GI50: 3.79 µM (inactive)
OVCAR-8
  GI50: 11.3 µM (inactive)
SK-MEL-5
  GI50: 11 µM (inactive)
SK-MEL-2
  GI50: 16.2 µM (inactive)
RPMI-8226
  GI50: 6.05 µM (inactive)
786-0
  GI50: 11.2 µM (inactive)
HCT-116
  GI50: 6.14 µM (inactive)
CAKI-1
  GI50: 12.5 µM (inactive)
SF-268
  GI50: 8.34 µM (inactive)
SF-539
  GI50: 13.1 µM (inactive)
COLO 205
  GI50: 10 µM (inactive)
BT-549
  GI50: 12.1 µM (inactive)
MDA-MB-231
  GI50: 7.06 µM (inactive)
SK-OV-3
  GI50: 9.77 µM (inactive)
NCI-H460
  GI50: 4.08 µM (inactive)
U-251
  GI50: 8.51 µM (inactive)
SW-620
  GI50: 11.2 µM (inactive)
HOP-62
  GI50: 12.9 µM (inactive)
RXF 393
  GI50: 3.07 µM (inactive)
MCF7
  GI50: 5.9 µM (inactive)
A549
  GI50: 10.1 µM (inactive)
UACC-257
  GI50: 9.35 µM (inactive)
UO-31
  GI50: 6.75 µM (inactive)
NCI-H226
  GI50: 17.6 µM (inactive)
OVCAR-3
  GI50: 10.4 µM (inactive)
OVCAR-4
  GI50: 10.5 µM (inactive)
A498
  GI50: 15.5 µM (inactive)
ACHN
  GI50: 11.6 µM (inactive)
IGROV-1
  GI50: 7.78 µM (inactive)
DU-145
  GI50: 11.9 µM (inactive)
PC-3
  GI50: 5.37 µM (inactive)
Malme-3M
  GI50: 12 µM (inactive)
SNB-75
  GI50: 7.43 µM (inactive)
MDA-N
  GI50: 11.5 µM (inactive)
MDA-MB-435
  GI50: 11.4 µM (inactive)
HCT-15
  GI50: 6.78 µM
Hs-578T
  GI50: 10.4 µM (inactive)
M14
  GI50: 6.81 µM (inactive)
UACC-62
  GI50: 11.5 µM (inactive)
HT-29
  GI50: 3.53 µM (inactive)
OVCAR-5
  GI50: 11.9 µM (inactive)
SNB-19
  GI50: 12.1 µM (inactive)
TK-10
  GI50: 9.4 µM (inactive)
SN12C
  GI50: 10.8 µM (inactive)
